Test results: publication PMC8121951, “Structure-based engineering of substrate specificity for pinoresinol-lariciresinol reductases” (Nature Communications, 2021)
Residue numbers refer to the chain shown, from its start. Names and notes keep the numbering of the source. One block for each molecule: values may come before it.

Legend:
[1] = target: T1, AtPrR1 (Arabidopsis thaliana, UniProt Q9FVQ6); test: X-ray crystal structure, co-crystal; assay type: binding; conditions: wild type
T1 construct: gene PRR1; full-length, pET-duet-1, E. coli Rosetta (DE3), Ni-NTA and Superdex-200; homodimer
T1 sequence (Q9FVQ6 1-317): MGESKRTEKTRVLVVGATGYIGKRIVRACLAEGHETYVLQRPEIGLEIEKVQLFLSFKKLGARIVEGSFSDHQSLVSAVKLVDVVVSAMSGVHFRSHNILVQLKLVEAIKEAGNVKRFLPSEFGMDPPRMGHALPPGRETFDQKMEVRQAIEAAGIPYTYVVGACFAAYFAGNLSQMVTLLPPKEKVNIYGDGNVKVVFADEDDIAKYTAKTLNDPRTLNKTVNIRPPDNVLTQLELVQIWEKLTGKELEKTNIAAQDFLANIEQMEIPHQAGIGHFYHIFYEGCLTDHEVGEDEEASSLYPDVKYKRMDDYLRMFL

[2] = target: T2, IiPLR1 (Isatis tinctoria, UniProt I6LRS1); test: X-ray crystal structure, co-crystal; assay type: binding; conditions: wild type
T2 construct: full-length, pET-duet-1, E. coli Rosetta (DE3), Ni-NTA and Superdex-200; homodimer
T2 sequence (I6LRS1 1-317): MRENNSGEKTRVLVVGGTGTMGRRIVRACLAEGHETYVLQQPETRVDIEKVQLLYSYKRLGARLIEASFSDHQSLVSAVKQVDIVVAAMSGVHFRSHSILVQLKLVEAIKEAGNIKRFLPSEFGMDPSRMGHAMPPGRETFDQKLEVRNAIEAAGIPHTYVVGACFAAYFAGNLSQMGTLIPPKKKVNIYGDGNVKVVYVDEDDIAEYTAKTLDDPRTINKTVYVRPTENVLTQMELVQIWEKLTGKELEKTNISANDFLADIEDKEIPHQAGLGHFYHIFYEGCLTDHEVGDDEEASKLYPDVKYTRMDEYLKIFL

[3] = target: Isatis indigotica pinoresinol-lariciresinol reductase 1 (Isatis indigotica); test: crystal structure; sitting-drop vapour diffusion at 20 or 4 °C, protein 5-10 mg/mL; apo, with NADP+ (1:5) or with NADP+ and substrate/product (1:5:10); homodimer seen in the crystal
[4] = target: T3, AtPrR2 (Arabidopsis thaliana, UniProt Q9SVP6); test: X-ray crystal structure, co-crystal; assay type: binding; conditions: wild type, 1.6 Å
T3 construct: gene PRR2; full-length, pET-duet-1, E. coli Rosetta (DE3), Ni-NTA and Superdex-200; homodimer
T3 sequence (Q9SVP6 1-317): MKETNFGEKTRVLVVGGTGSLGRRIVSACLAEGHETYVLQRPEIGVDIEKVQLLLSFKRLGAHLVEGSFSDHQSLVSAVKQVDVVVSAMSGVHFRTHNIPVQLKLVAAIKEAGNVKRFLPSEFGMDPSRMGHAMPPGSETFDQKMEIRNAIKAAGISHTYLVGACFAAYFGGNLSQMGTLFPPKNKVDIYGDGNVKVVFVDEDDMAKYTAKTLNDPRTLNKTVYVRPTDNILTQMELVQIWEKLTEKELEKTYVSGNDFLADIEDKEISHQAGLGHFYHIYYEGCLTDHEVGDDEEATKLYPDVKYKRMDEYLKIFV

[5] = target: T4, AtPrR2 (Arabidopsis thaliana, UniProt Q9SVP6, N98S); test: LC-MS product conversion; assay type: biochemical; conditions: NADPH 150 μM, Tris-HCl pH 7.0, 30 °C, 30 min
T4 construct: gene PRR2; full-length, pET-duet-1, E. coli Rosetta (DE3), Ni-NTA and Superdex-200; homodimer
T4 sequence (Q9SVP6 1-317 N98S): T3 sequence (Q9SVP6 1-317) with N98S

[6] = target: the molecule itself; test: crystal structure; sitting-drop vapour diffusion at 20 or 4 °C, protein 5-10 mg/mL; apo, with NADP+ (1:5) or with NADP+ and substrate/product (1:5:10); homodimer seen in the crystal
[7] = substrate: COc1cc(CC2COC(c3ccc(O)c(OC)c3)C2CO)ccc1O; test: LC-MS substrate consumption, Lineweaver-Burk; assay type: biochemical, Isatis tinctoria; conditions: NADPH 150 μM, 50 mM Tris-HCl pH 7.0, 10% glycerol, 30 °C, racemic substrate
From the text: (§1) LC-MS substrate consumption, Lineweaver-Burk on IiPLR1

[8] = substrate: COc1cc(C2OCC3C(c4ccc(O)c(OC)c4)OCC23)ccc1O; test: LC-MS substrate consumption, Lineweaver-Burk; assay type: biochemical, Isatis tinctoria; conditions: NADPH 150 μM, 50 mM Tris-HCl pH 7.0, 10% glycerol, 30 °C, racemic substrate
From the text: as §1

Molecule: COc1cc(C[C@H]2CO[C@H](c3ccc(O)c(OC)c3)[C@H]2CO)ccc1O [+LAR, (+)-lariciresinol]
X-ray crystal structure, co-crystal ([1]; with NADP+, 1.8 Å): 7CSD (AtPrR1 with NADP^+ and (+)lariciresinol)

Molecule: COc1cc(C[C@H](CO)[C@@H](CO)Cc2ccc(O)c(OC)c2)ccc1O [+SEC, (+)-secoisolariciresinol]
X-ray crystal structure, co-crystal ([2]; with NADP+, 2.3 Å): 7CS7 (IiPLR1 with NADP^+ and (+)secoisolariciresinol)

stoichiometry N [3]: 2
Molecule: Isatis indigotica pinoresinol-lariciresinol reductase 1 (enzyme)

Molecule: COc1cc(C[C@@H](CO)[C@H](CO)Cc2ccc(O)c(OC)c2)ccc1O [-SEC, (−)-secoisolariciresinol]
X-ray crystal structure, co-crystal ([1]; with NADP+, 2.0 Å): 7CSF (AtPrR1 with NADP^+ and (−)secoisolariciresinol) | X-ray crystal structure, co-crystal ([2]; with NADP+, 2.6 Å): 7CS8 (IiPLR1 with NADP^+ and (−)secoisolariciresinol)

Molecule: COc1cc([C@@H]2OC[C@@H]3[C@H]2CO[C@H]3c2ccc(O)c(OC)c2)ccc1O [-PIN, (−)-pinoresinol]
X-ray crystal structure, co-crystal ([1]; with NADP+, 2.5 Å): 7CSC (AtPrR1 with NADP^+ and (−)pinoresinol) | X-ray crystal structure, co-crystal ([2]; with NADP+, 2.1 Å): 7CS5 (IiPLR1 with NADP^+ and (−)pinoresinol)

X-ray crystal structure, co-crystal ([1]; 2.0 Å): 7CSA (AtPrR1 with NADP^+) | X-ray crystal structure, co-crystal ([2]; 2.4 Å): 7CS3 (IiPLR1 with NADP^+)
Molecule: NC(=O)c1ccc[n+]([C@@H]2O[C@H](COP(=O)(O)OP(=O)(O)OC[C@H]3O[C@@H](n4cnc5c(N)ncnc54)[C@H](OP(=O)(O)O)[C@@H]3O)[C@@H](O)[C@H]2O)c1 [NAP, NADP^+]
X-ray crystal structure, co-crystal ([4]; with (+)-pinoresinol): 7CSH (AtPrR2 with NADP^+ and (+)pinoresinol)

Molecule: COc1cc([C@H]2OC[C@H]3[C@@H]2CO[C@@H]3c2ccc(O)c(OC)c2)ccc1O [+PIN, (+)-pinoresinol]
X-ray crystal structure, co-crystal ([1]; with NADP+, 2.0 Å): 7CSB (AtPrR1 with NADP^+ and (+)pinoresinol) | X-ray crystal structure, co-crystal ([2]; with NADP+, 2.3 Å): 7CS4 (IiPLR1 with NADP^+ and (+)pinoresinol) | X-ray crystal structure, co-crystal ([4]; with NADP+): 7CSH (AtPrR2 with NADP^+ and (+)pinoresinol)

Molecule: COc1cc(C[C@H]2CO[C@H](c3ccc(O)c(OC)c3)[C@H]2CO)ccc1O [lariciresinol]
LC-MS product conversion [5]: AtPrR2 mutant N98S could utilize lariciresinol to produce secoisolariciresinol

Molecule: COc1cc(C[C@@H]2CO[C@@H](c3ccc(O)c(OC)c3)[C@@H]2CO)ccc1O [-LAR, (−)-lariciresinol]
X-ray crystal structure, co-crystal ([1]; with NADP+, 2.5 Å): 7CSE (AtPrR1 with NADP^+ and (−)lariciresinol) | X-ray crystal structure, co-crystal ([2]; with NADP+, 2.2 Å): 7CS6 (IiPLR1 with NADP^+ and (−)lariciresinol)

B1: Arabidopsis thaliana pinoresinol reductase 2 (enzyme, UniProt Q9SVP6 1-317, looked up)
chain: T3 sequence (Q9SVP6 1-317)
notes: Head-to-tail homodimer in both crystal forms (apo); with NADP+ and (+)-pinoresinol); also called AtPrR2; PrR; source: E. coli Rosetta (DE3), purified (Ni-NTA, Superdex-200); not shown: His tag (inferred from the Ni-NTA purification)
stoichiometry N [6]: 2

B2: Arabidopsis thaliana pinoresinol reductase 1 (enzyme, UniProt Q9FVQ6 1-317, looked up)
chain: T1 sequence (Q9FVQ6 1-317)
notes: Head-to-tail homodimer in all crystal forms; crystallised apo, with NADP+, or with NADP+ and substrate/product; also called AtPrR1; PrR; source: E. coli Rosetta (DE3), purified (Ni-NTA, Superdex-200); not shown: His tag (inferred from the Ni-NTA purification)
stoichiometry N [6]: 2

B3: IiPLR1 (Isatis tinctoria; V46A) (protein)
chain: T2 sequence (I6LRS1 1-317) with V46A
notes: full-length, pET-duet-1, E. coli Rosetta (DE3), Ni-NTA and Superdex-200; homodimer
Km [7]: 26.5 ± 0.60 µM | Vmax [7]: 0.023 µM/min | kcat [7]: 0.0135 ± 0.00075 s⁻¹ | kcat/Km [7]: 517 ± 33.3 M⁻¹ s⁻¹ | Km [8]: 29.4 ± 1.62 µM | Vmax [8]: 3.22 µM/min | kcat [8]: 1.91 ± 0.402 s⁻¹ | kcat/Km [8]: 64700 ± 10800 M⁻¹ s⁻¹
